Test results published in patent publication US6908935B2, “Calcium receptor modulating agents” (Amgen Inc., priority 2002, dated 2005).

molecular target: T1, human parathyroid cell Ca^2+ receptor (hPCaR) (Homo sapiens, UniProt P41180); experiment: [Ca2+]i measurement with fluo-3 in HEK 293 4.0-7 cells stably transfected with hPCaR; type: cell-based; conditions: fluo-3 fluorescence (485/530 nm), effect on [Ca^2+]i
T1 construct: expressed in transfected cells
T1 sequence (P41180 20-1078): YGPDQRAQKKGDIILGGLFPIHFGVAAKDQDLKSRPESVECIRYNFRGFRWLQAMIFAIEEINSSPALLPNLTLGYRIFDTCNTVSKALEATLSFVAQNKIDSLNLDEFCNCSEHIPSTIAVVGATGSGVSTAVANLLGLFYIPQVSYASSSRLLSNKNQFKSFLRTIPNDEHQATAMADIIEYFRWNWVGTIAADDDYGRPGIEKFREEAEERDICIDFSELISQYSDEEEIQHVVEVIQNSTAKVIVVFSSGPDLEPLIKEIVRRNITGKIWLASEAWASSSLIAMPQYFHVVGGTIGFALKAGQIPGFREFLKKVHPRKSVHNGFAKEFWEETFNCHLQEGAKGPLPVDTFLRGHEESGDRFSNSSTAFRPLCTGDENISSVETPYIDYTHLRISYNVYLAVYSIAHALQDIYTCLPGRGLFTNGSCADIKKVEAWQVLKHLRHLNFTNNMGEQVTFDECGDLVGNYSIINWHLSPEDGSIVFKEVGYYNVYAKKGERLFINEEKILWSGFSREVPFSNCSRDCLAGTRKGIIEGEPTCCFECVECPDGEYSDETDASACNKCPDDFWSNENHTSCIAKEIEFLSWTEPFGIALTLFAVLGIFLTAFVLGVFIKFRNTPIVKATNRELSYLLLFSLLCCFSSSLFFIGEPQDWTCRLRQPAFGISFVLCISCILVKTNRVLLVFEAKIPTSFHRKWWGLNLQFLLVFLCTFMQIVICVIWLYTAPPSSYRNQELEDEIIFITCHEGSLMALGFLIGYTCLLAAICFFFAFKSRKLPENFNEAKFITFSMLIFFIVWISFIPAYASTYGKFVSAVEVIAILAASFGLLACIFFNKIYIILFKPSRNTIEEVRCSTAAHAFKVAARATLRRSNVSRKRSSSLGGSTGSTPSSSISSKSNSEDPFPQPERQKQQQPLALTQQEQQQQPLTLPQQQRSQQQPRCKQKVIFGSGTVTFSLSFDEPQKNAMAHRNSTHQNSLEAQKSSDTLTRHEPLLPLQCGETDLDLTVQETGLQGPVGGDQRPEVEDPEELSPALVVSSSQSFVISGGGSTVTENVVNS
How it was run: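 HEK 293 cells stably expressing human parathyroid Ca2+ receptor (clone 4.0-7), loaded with 2 μM fluo-3 AM for 30 min at 37 °C in parathyroid cell buffer (pH 7.45) with 1 mM CaCl2 and 0.5% BSA. After compound addition, intracellular Ca2+ followed by fluorescence at 485 nm excitation/530 nm emission.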

Row | SMILES | EC50 [µM]
1 | COc1ccc(CN[C@H](C)c2cccc3ccccc23)cc1-n1cccc1 [(1R)-N-((4-(methyloxy)-3-(1H-pyrrol-1-yl)phenyl)methyl)-1-(1-naphthalenyl)ethanamine] | ≤ 10
2 | COc1ccc(CN[C@H](C)c2cccc3ccccc23)cc1-c1ccc(S(C)(=O)=O)cc1 [(1R)-N-((6-(methyloxy)-4′-(methylsulfonyl)-1,1′-biphenyl-3-yl)methyl)-1-(1-naphthalenyl)ethanamine] | ≤ 10
3 | COc1cccc([C@@H](C)NCc2ccc(OC)c(-c3ccc(C(F)(F)F)nc3)c2)c1 [(1R)-1-(3-(methyloxy)phenyl)-N-((4-(methyloxy)-3-(6-(trifluoromethyl)-3-pyridinyl)phenyl)methyl)ethanamine] | ≤ 10
4 | Cc1ccc([C@@H](C)NCc2cccc(-c3ccc(C)c(C)c3)c2)cc1 [(1R)-N-((3′,4′-dimethyl-1,1′-biphenyl-3-yl)methyl)-1-(4-methylphenyl)ethanamine] | ≤ 10
5 | COc1ccc(-c2cccc(CN[C@H](C)c3ccc(OC)cc3)c2)cc1 [(1R)-N-((4′-(methyloxy)-1,1′-biphenyl-3-yl)methyl)-1-(4-(methyloxy)phenyl)ethanamine] | ≤ 10
6 | COc1ccc(CN[C@H](C)c2cccc(Cl)c2)cc1-c1ccc(C(F)(F)F)cc1 [(1R)-1-(3-chlorophenyl)-N-((6-(methyloxy)-4′-(trifluoromethyl)-1,1′-biphenyl-3-yl)methyl)ethanamine] | ≤ 10
7 | COc1cccc([C@@H](C)NCc2ccc(I)c(-c3ccc(C(F)(F)F)cc3)c2)c1 [(1R)-N-((6-iodo-4′-(trifluoromethyl)-1,1′-biphenyl-3-yl)methyl)-1-(3-(methyloxy)phenyl)ethanamine] | ≤ 10
8 | COc1cccc([C@@H](C)NCc2ccc(OC)c(-c3ccc4c(c3)ncn4C)c2)c1 [(1R)-N-((3-(1-methyl-1H-benzimidazol-5-yl)-4-(methyloxy)phenyl)methyl)-1-(3-(methyloxy)phenyl)ethanamine] | ≤ 10
9 | COc1cccc([C@@H](C)NCc2ccc(OC)c(-c3ccc(OC)nn3)c2)c1 [(1R)-N-((4-(methyloxy)-3-(6-(methyloxy)-3-pyridazinyl)phenyl)methyl)-1-(3-(methyloxy)phenyl)ethanamine] | ≤ 10
10 | COc1ccc(CN[C@H](C)c2cccc3ccccc23)cc1-c1cccc(C(=O)O)c1 [2′-(methyloxy)-5′-((((1R)-1-(1-naphthalenyl)ethyl)amino)methyl)-1,1′-biphenyl-3-carboxylic acid] | ≤ 10
11 | COc1ccc(CN[C@H](C)c2cccc3ccccc23)cc1-c1cccs1 [(1R)-N-((4-(methyloxy)-3-(2-thienyl)phenyl)methyl)-1-(1-naphthalenyl)ethanamine] | ≤ 10
12 | COc1ccc([C@@H](C)NCc2cccc(-c3ccccc3C)c2)cc1 [(1R)-N-((2′-methyl-1,1′-biphenyl-3-yl)methyl)-1-(4-(methyloxy)phenyl)ethanamine] | ≤ 10
13 | COc1ccc(-c2cccc(CN[C@H](C)c3ccc4ccccc4c3)c2)cc1 [(1R)-N-((4′-(methyloxy)-1,1′-biphenyl-3-yl)methyl)-1-(2-naphthalenyl)ethanamine] | ≤ 10
14 | COc1ccc(CN[C@H](C)c2ccc(C)cc2)cc1-c1cnccn1 [(1R)-N-((4-(methyloxy)-3-(2-pyrazinyl)phenyl)methyl)-1-(4-methylphenyl)ethanamine] | ≤ 10
15 | COc1ccc(CN[C@H](C)c2cccc3ccccc23)cc1-c1ccc(OCC(F)(F)F)nc1 [(1R)-N-((4-(methyloxy)-3-(6-((2,2,2-trifluoroethyl)oxy)-3-pyridinyl)phenyl)methyl)-1-(1-naphthalenyl)ethanamine] | ≤ 10
16 | COCCOc1ccc(CN[C@H](C)c2ccccc2)cc1-c1ccc(C(F)(F)F)cc1 [(1R)-N-((6-((2-(methyloxy)ethyl)oxy)-4′-(trifluoromethyl)-1,1′-biphenyl-3-yl)methyl)-1-phenylethanamine] | ≤ 10
17 | COc1ccc(CN[C@H](C)c2ccccc2)cc1-c1ccnc(Cl)c1 [(1R)-N-(3-(2-chloropyrid-4-yl)-4-methoxyphenyl)methyl-N-1-phenylethylamine] | ≤ 10
18 | COc1cccc([C@@H](C)NCc2ccc(OC)c(-c3cccc(OC(F)(F)F)c3)c2)c1 [(1R)-1-(3-(methyloxy)phenyl)-N-((6-(methyloxy)-3′-((trifluoromethyl)oxy)-1,1′-biphenyl-3-yl)methyl)ethanamine] | ≤ 10
19 | C[C@@H](NCc1cccc(-c2cnccn2)c1)c1ccccc1 [(1R)-1-phenyl-N-((3-(2-pyrazinyl)phenyl)methyl)ethanamine] | ≤ 10
20 | COc1cccc([C@@H](C)NCc2ccc(OC)c(-c3ccc(C(N)=O)cc3)c2)c1 [2′-(methyloxy)-5′-((((1R)-1-(3-(methyloxy)phenyl)ethyl)amino)methyl)-1,1′-biphenyl-4-carboxamide] | ≤ 10
21 | C[C@@H](NCc1ccc(C(F)(F)F)c(-c2ccc(C(F)(F)F)cc2)c1)c1cccc2ccccc12 [(1R)-N-((4′,6-bis(trifluoromethyl)-1,1′-biphenyl-3-yl)methyl)-1-(1-naphthalenyl)ethanamine] | ≤ 10
22 | Cc1ccc([C@@H](C)NCc2cccc(-c3ccc(F)cc3)c2)cc1 [(1R)-N-((4′-fluoro-1,1′-biphenyl-3-yl)methyl)-1-(4-methylphenyl)ethanamine] | ≤ 10
23 | CCOC(=O)N1CC=C(c2cc(CN[C@H](C)c3cccc4ccccc34)ccc2OC)CC1 [ethyl 4-(2-(methyloxy)-5-((((1R)-1-(1-naphthalenyl)ethyl)amino)methyl)phenyl)-3,6-dihydro-1(2H)-pyridinecarboxylate] | ≤ 10
24 | COc1cccc([C@@H](C)NCc2ccc(OC)c(-c3cccc(C(=O)O)c3)c2)c1 [2′-(methyloxy)-5′-((((1R)-1-(3-(methyloxy)phenyl)ethyl)amino)methyl)-1,1′-biphenyl-3-carboxylic acid] | ≤ 10

Other lines, results leading:

Row | EC50 [µM] | SMILES
25 | ≤ 10 | Cc1noc(C)c1-c1ccc(CN[C@H](C)c2cccc3ccccc23)cc1 [(1R)-N-((4-(3,5-dimethyl-4-isoxazolyl)phenyl)methyl)-1-(1-naphthalenyl)ethanamine]
26 | ≤ 10 | COc1ccc(CN[C@H](C)c2ccccc2)cc1-c1ccc2ocnc2c1 [Example 264, (1R)-N-((3-(1,3-benzoxazol-5-yl)-4-(methyloxy)phenyl)methyl)-1phenylethanamine]
27 | ≤ 10 | COc1ccc([C@@H](C)NCc2ccc(OC)c(-c3nccs3)c2)cc1 [(1R)-1-(4-(methyloxy)phenyl)-N-((4-(methyloxy)-3-(1,3-thiazol-2-yl)phenyl)methyl)ethanamine]
28 | ≤ 10 | C[C@@H](NCc1cccc(-c2nccs2)c1)c1ccccc1 [Example 218, (1R)-1-phenyl-N-((3-(1,3-thiazol-2-yl)phenyl)methyl)ethanamine]
29 | ≤ 10 | COc1ccc(CN[C@H](C)c2ccccc2)cc1-c1cn(C)cn1 [(1R)-N-((3-(1-methyl-1H-imidazol-4-yl)-4-(methyloxy)phenyl)methyl)-1-phenylethanamine]
30 | ≤ 10 | COc1ccc([C@@H](C)NCc2cccc(-c3ccccc3F)c2)cc1 [(1R)-N-((2′-fluoro-1,1′-biphenyl-3-yl)methyl)-1-(4-(methyloxy)phenyl)ethanamine]
31 | ≤ 10 | C[C@@H](NCc1cccc(-c2ccoc2)c1)c1ccccc1 [Example 226, (1R)-N-((3-(3-furanyl)phenyl)methyl)-1-phenylethanamine]
32 | ≤ 10 | COc1ccc(CN[C@H](C)c2ccccc2)cc1-c1ccc(Cl)cc1 [(1R)-N-((4′-chloro-6-(methyloxy)-1,1′-biphenyl-3-yl)methyl)-1-phenylethanamine]
33 | ≤ 10 | COc1ccc(CN[C@H](C)c2cccc3ccccc23)cc1-c1cccc(C#N)c1 [2′-(methyloxy)-5′-((((1R)-1-(1-naphthalenyl)ethyl)amino)methyl)-1,1′-biphenyl-3-carbonitrile]
34 | ≤ 10 | COc1ccc(-c2cc(CN[C@H](C)c3ccc(OC)cc3)ccc2F)cc1 [(1R)-N-((6-fluoro-4′-(methyloxy)-1,1′-biphenyl-3-yl)methyl)-1-(4-(methyloxy)phenyl)ethanamine]
35 | ≤ 10 | COc1ccc(CN[C@H](C)c2ccccc2)cc1-c1ccc2c(ccn2CC(N)=O)c1 [2-(5-(2-(methyloxy)-5-((((1R)-1-phenylethyl)amino)methyl)phenyl)-1H-indol-1-yl)acetamide]
